Measurements reported in patent US7510833B2, “Method for examining obesity or leanness” (Banyu Pharmaceutical Co., Ltd., priority 2003, dated 2009).

Legend:
Assay type in all cases: in vivo, mouse
[1] = system: leptin; assay: Expression of leptin in white adipocytes of mice i.c.v. administered with NPY Y5 agonist; settings: 5 μg/day i.c.v., non-treated C57BL/6N set to 1
[2] = system: MCP-1; assay: Expression of MCP-1 in white adipocytes of mice i.c.v. administered with NPY Y5 agonist (TaqMan PCR); settings: 5 μg/day i.c.v., non-treated C57BL/6N set to 1
Procedure: Model mice displaying obesity were constructed by the administration of NPY Y5 agonist in the manner described below.
Male mice (9-12 weeks old) (C57BL/6J, CLEA, Inc.) were bred at one animal per plastic cage under the conditions of: room temperature 23±2° C.; and humidity 55±15%. The light-dark cycle during breeding period was set to be 12 hours and the light was put on at 7 a.m. and turned off at 7 p.m. Mice were allowed access to ad lib feed (CE-2 (protein: 25.4 wt. %; carbohydrate: 50.3 wt. %; lipid: 4.4 wt. %), CLEA, Inc.) and water.
Mice were anesthetized with 80 mg/kg of sodium pentobarbital (Dinabott Inc.) and were locally implanted with sterilized 28-gage brain fusion cannulas (Alzet) at their right cerebral ventricles. The cannula was fixed vertically relative to the cranical bone at the position 0.4 mm behind and 0.8 mm side of the bregma and 2 mm deep. The cannula was fixed to the ventricle with dental cement. The cannula was connected to an osmotic pump (model no. 2002 manufactured by Alzet) filled with 10 mM phosphate buffer containing 0.05% bovine serum albumin via a polyvinylchloride tube. […]
The quantitative analysis of the expression amount of MCP-1 was performed by TaqMan PCR, using cDNA obtained from the white adipocytes according to RT-PCR. […]

[3] = system: CD11b positive blood cells (monocytes/macrophages); assay: Expression analysis of CD11b by flow cytometry in mice administered with MCP-1; settings: subcutaneous infusion by osmotic pump, 10 ng/0.5 μl/hr over 2 weeks; versus saline-administered control mice; FIG. 10(d)-(f)
Procedure: The analysis using flow cytometry was performed to study how the count of CD11b, which was a surface antigen of macrophages, or blood monocytes would vary upon administration of MCP-1.
Mice were first subcutaneously infused with. MCP-1, using an osmotic pump, at the rate of 10 ng/0.5 μl/hr over 2 weeks. Next, blood was collected from the tail veins of the control mice (C57BL/6), the DIO mice and the MCP-1 treated mice, respectively, using a heparinized capillary. After blood cells were collected from the blood by centrifugation at 300×g for 5 minutes, they were incubated with the FITC-labeled anti-mouse CD11b antibody (BD Biosciences) at room temperature for 15 minutes. The samples were incubated with the IgG2b isotype to serve as a non-specific binding control. After washing these cells with PBS, erythrocytes were lyzed with a lysis buffer at room temperature for 5 minutes. After washing the cells with PBS, the cells were suspended in PBS containing 0.5% formaldehyde. Flow cytometry was performed on this suspension, using an EPCIS Elite Flow Cytometer (Beckman Coulter, Inc.), to identify monocytes. Here, the analysis by flow cytometry was carried out by determining the population of monocytes/macrophages in the whole blood cells. In the flow cytometry 40,000 cells per each sample were analyzed with the fluorescence and scattered light as indices. […]

Substance	Expression amount of leptin ([1]; Y5 agonist FF (ad lib fed))	Expression amount of leptin ([1]; Y5 agonist PF (pair feeding))	Expression amount of MCP-1 ([2]; Y5 agonist FF (ad lib fed))	Expression amount of MCP-1 ([2]; Y5 agonist PF (pair feeding))	CD11b positive blood cell count [3]
D-Try^34 NPY [Y5 agonist]	3.53	1.77	7.67	5.16	
MCP-1: monocyte chemotaxis factor protein of the CC chemokine subfamily, subcutaneously infused into mice					increases
